For one test, the system named is T. brucei TC221. Description: Viability of T. brucei TC221 bloodstream forms (resazurin fluorescence). The class given is cell-based, Trypanosoma brucei. The method, then: (§1) The biological assays have been conducted in collaboration with Prof. Anders Hofer, Department of Medical Biochemistry and Biophysics, Umeå University, Umeå, Sweden. T. bruceiTC221 bloodstream forms and mouse embryonic fibroblast Balb/3T3 cells (ATCC no CCL-163) were cultivated in a vented plastic flask at 37 °C with 5% CO2. For T. brucei, the growth medium was Hirumi’s modified Iscoves medium (HMI)-9 supplemented with 10% (v/v) fetal bovine serum (Thermo Fischer Scientific Gibco, Waltham, MA, USA), whereas the Balb/3T3 cells were grown in Dulbecco’s modified Eagle’s medium (Sigma-Aldrich) supplemented with 10% (v/v) heat-inactivated fetal bovine serum, glutamine (0.584 g/L), and 10 mL/L 100 × penicillin–streptomycin (Gibco).[48]−[50] […] The plates were incubated for 48 h in the 5%CO2 incubator; then, 20 μL of 0.5 mM resazurine (Sigma-Aldrich) was added to each well, and the plates were incubated for an additional 24 h before the fluorescence was measured with the Synergy H4 microplate reader (excitation wavelength 530 or 540 nm and emission wavelength 590 nm).
(§2) The half-maximal efficacious concentration (EC50) values were calculated on the log inhibitor versus the response curves by non-linear regression using the GraphPad prism 5.2 software (GraphPad Software, Inc., La Jolla, CA, USA). […]
On the technique in general: Resazurin is reduced to fluorescent resorufin, in cell work by metabolically active cells.

In the next test the test system is Balb/3T3 cells. Nature of the test: Cytotoxicity on Balb/3T3 mammalian reference cells (resazurin fluorescence). Format: cell-based. Particulars: mouse embryonic fibroblasts, 48 h + 24 h with resazurin. The procedure: as §1, §2

Where only a bound is given, the exact number is not on record here.

On to `Cc1ccc(C(=O)Nc2ccc(S(=O)(=O)O)c3cc(S(=O)(=O)O)cc(S(=O)(=O)O)c23)cc1NC(=O)c1cccc(NC(=O)Nc2cccc(C(=O)Nc3cc(C(=O)Nc4ccc(S(=O)(=O)O)c5cc(S(=O)(=O)O)cc(S(=O)(=O)O)c45)ccc3C)c2)c1` [suramin, reference compound], for which the “SI (selectivity index)” value in the test on T. brucei TC221 (T. brucei versus Balb/3T3 reference cells) is over 100. Besides, the EC50 was 0.023 ± 0.0008 µM in the test with T. brucei TC221 (Trypanosoma brucei, bloodstream forms, 48 h + 24 h with resazurin) and 43.9 ± 1.44 µM in the test with Balb/3T3 cells.

What is called EC50 is the concentration needed to bring the measured effect to its halfway point.

Source of the values: PMC9446893, “Zinc(II) Complex with Pyrazolone-Based Hydrazones is Strongly Effective against Trypanosoma brucei Which Causes African Sleeping Sickness” (Inorganic Chemistry, 2022).
